According to US20050222168A1, “Beta-carboline derived guanidine alkaloids, tiruchenduramine” (Council of Scientific and Industrial Research, priority 2004, published 2005):

Tested on: α-glucosidase
Experiment: in-vitro assay for anti-diabetic activity (α-glucosidase inhibition)
Assay type: biochemical
Conditions: amount printed without volume or percent inhibition
From the text: The structure of compound 1 was established by the study of ^1H-^1H—COSY, HMQC, HMBC and NOESY spectral data (Table 1) as Formula 1.

- amount at which it inhibits α-glucosidase: 788 µg
SMILES: N=C1NCC(CCNC(=O)c2cc3c(cn2)[nH]c2ccccc23)N1 (stereo not shown) [Tiruchenduramine, tiruchenduramine]
